# Tested on: Glucose-6-phosphat-Dehydrogenase
# Assay: Conversion of different hexoses by glucose-6-phosphate dehydrogenase in the presence of NADP+ (photometric)
# Format: biochemical
# Conditions: Hexose 50 mmol/l, G6P-DH 10 U/ml, NADP+ added, 37 °C, 340 nm, ca. 40 min, Imidazol·HCl pH 6,6
# Protocol: Beispiel 1: Umsetzung verschiedener Hexosen mit Glucose-6-phosphat-Dehydrogenase in Gegenwart von NADP^+
# Testansatz: Es wurden in einer Küvette mit einer Schichtdicke von 1 cm jeweils 1,0 ml Reagenz A mit 0,1 ml Reagenz B vermischt und mit einem Spektralphotometer bei 37 °C und 340 nm der Extinktionsverlauf über ca. 40 min verfolgt.
row,Compound,NADPH-Bildung (Extinktionsverlauf)
1,O=C(CO)[C@@H](O)[C@H](O)[C@H](O)CO [Fructose],keine Extinktionsveränderung meßbar
2,Glucose [reference compound],signifikante NADPH-Bildung
3,Mannose,keine Extinktionsveränderung meßbar

# — patent publication EP0913483A2, “Method and reagent for the determination of creatine kinase” (Roche Diagnostics GmbH, priority 1997, dated 1999)
